Experimental data from US10421754B2, “Quinazoline derivative” (CSPC ZHONGQI PHARMACEUTICAL TECHNOLOGY (SHIJIAZHUANG) CO., …, priority 2014, dated 2019).
pIC50: −log10 of the molar value.

Columns and labels:
HT-29 = assay: In vitro cell experiment (MTT), HT-29; type: cell-based; conditions: 72 h, human colon carcinoma cells (expressing both c-KIT and PDGFR)
Experimental: (§1) Cells in logarithmic growth phase were seeded at a certain density in a 96-well plate (200 μL/well). The cells were allowed to grow for 24 h and subsequently treated with different concentrations of drugs (including a blank group and a control group) and incubated for 72 h at 37° C. Each concentration in a given experiment was tested in triplicate. After 72 h of exposure, 20 μL of the MTT labeling reagent was added to the medium (the final concentration of MTT was 0.5 mg/mL), and the cells were incubated for additional 4 h at 37° C. Following this process, 180 μL of the medium was removed and 130 μL of DMSO was added to each well, or the medium was completely removed and 150 μL of DMSO was added to each well. Then the plate was shaken and mixed in a micro-oscillator. Finally the optical density (OD) of each sample was measured in a micro-plate reader at 550 nm. Cell inhibition rate was calculated according to the following formula: […]
(§2) According to cell inhibition rates, IC50 was calculated by LOGIT method. The experiments were repeated twice and the data was expressed as means±SD.

A375 = assay: In vitro cell experiment (MTT), A375; type: cell-based; conditions: A-375, 72 h, human melanoma cells (KDR expressing)
Experimental: as §1, §2

A549 = assay: In vitro cell experiment (MTT), A549; type: cell-based; conditions: 72 h, human non-small-cell lung carcinoma cells (EGFR1 wildtype)
Experimental: as §1, §2

SGC7901 = assay: In vitro cell experiment (MTT), SGC7901; type: cell-based; conditions: SGC-7901, 72 h, human gastric carcinoma cells
Experimental: as §1, §2

PDGFRβ = PDGFRβ (Homo sapiens, UniProt P09619); assay: In vitro enzyme experiment (ELISA), PDGFRβ; type: biochemical; conditions: Poly (Glu, Tyr)4:1 substrate, 5 μM ATP
Experimental: PDGFRβ: Platelet-derived growth factor receptor β
(§3) ELISA: The enzyme plate was coated by enzyme reaction substrate (Poly (Glu, Tyr)4:1) at a density of 20 μg/ml. Then the enzyme, the sample and 5 μM ATP were mixed in the well to react. After the reaction, the substrate phosphorylation was detected by anti-phosphotyrosine monoclonal antibody (4G10). In the next step, the goat-anti-mouse IgG linking with horse radish peroxidase (HRP) and tetramethylbenzidine (TMB) were added sequentially in the well to evaluate the level of substrate phosphorylation by the degree of color depth. In the experiment, a blank group without tyrosine kinase and a control group with the corresponding concentration of DMSO were established. Finally, 50 μL/well of H2SO4 at a concentration of 0.18M was added in each well to stop the reaction. The optical density (OD) of each sample was measured in a micro-plate reader at 450 nm.
(§4) The relative inhibition rate of the compound against tyrosine kinase protein was determined.
(§5) According to the inhibition rates at different concentrations, IC50 was calculated by LOGIT method. The experiments were repeated three times, and the average of three IC50 values was the final index to evaluate the ability of inhibition.

SK-OV-3 = assay: In vitro cell experiment (MTT), SK-OV-3; type: cell-based; conditions: 72 h, human ovarian carcinoma cells (EGFR2 overexpressing)
Experimental: as §1, §2

Eca109 = assay: In vitro cell experiment (MTT), Eca109; type: cell-based; conditions: ECa-109, 72 h, human esophageal carcinoma cells
Experimental: as §1, §2

KDR = KDR (Homo sapiens, UniProt P35968); assay: In vitro enzyme experiment (ELISA), KDR; type: biochemical; conditions: Poly (Glu, Tyr)4:1 substrate, 5 μM ATP
Experimental: KDR: Human vascular endothelial growth factor receptor 2
as §3, §4, §5

HUVEC = assay: In vitro cell experiment (MTT), HUVEC; type: cell-based; conditions: 72 h, human umbilical vein endothelial cell (KDR overexpressing)
Experimental: as §1, §2

Bel-7402 = assay: In vitro cell experiment (MTT), Bel-7402; type: cell-based; conditions: 72 h, human hepatoma carcinoma cells
Experimental: as §1, §2

HCC827 = assay: In vitro cell experiment (MTT), HCC827; type: cell-based; conditions: 72 h, human non-small cell lung carcinoma (EGFR1 19 exon mutation)
Experimental: as §1, §2

PC-9 = assay: In vitro cell experiment (MTT), PC-9; type: cell-based; conditions: 72 h, human non-small-cell lung carcinoma cells (EGFR1 19 exon mutation)
Experimental: as §1, §2

BTK = BTK (Homo sapiens, UniProt Q06187); assay: In vitro enzyme experiment (ELISA), BTK; type: biochemical; conditions: Poly (Glu, Tyr)4:1 substrate, 5 μM ATP
Experimental: BTK: Bruton tyrosine kinase
as §3, §4, §5

H292 = assay: In vitro cell experiment (MTT), H292; type: cell-based; conditions: NCI-H292, 72 h, human lung carcinoma cells (EGFR1 overexpressing)
Experimental: as §1, §2

A498 = assay: In vitro cell experiment (MTT), A498; type: cell-based; conditions: 72 h, human renal carcinoma cells
Experimental: as §1, §2

[1] = Mouse maximum tolerated dose (MTD) experiment; conditions: in vivo, mice, oral, administered 7 days then observed 7 days
Experimental: In the mouse MTD experiment, the mice were administrated with the present compounds.
Healthy mice, having a small difference in body's weights, were chosen. The chosen mice were placed in different layers of cages according to their body's weights. In each layer, the mice were randomly divided into groups. In each group, there were three mice.
The administration dosages were 1000, 500, 250, 125, 62.5 and 31.25 mg/kg respectively and each two dosages differed by a factor of 2. For each of administration dosages, three mice were allotted. The mice were administrated with the present compounds for 7 days and then observed for the next 7 days without the present compounds.
The present compounds were orally administrated with the mice according to the administration dosage and the body weight.

TT = assay: In vitro cell experiment (MTT), TT; type: cell-based; conditions: 72 h, human thyroid carcinoma cells (RET C634W mutation)
Experimental: as §1, §2

RET = RET (Homo sapiens, UniProt P07949); assay: In vitro enzyme experiment (ELISA), RET; type: biochemical; conditions: Poly (Glu, Tyr)4:1 substrate, 5 μM ATP
Experimental: RET: A receptor involved in thyroid cancer
as §3, §4, §5

CFPAC-1 = assay: In vitro cell experiment (MTT), CFPAC-1; type: cell-based; conditions: 72 h, human pancreatic carcinoma cells
Experimental: as §1, §2

AXL = AXL (Homo sapiens, UniProt P30530); assay: In vitro enzyme experiment (ELISA), AXL; type: biochemical; conditions: Poly (Glu, Tyr)4:1 substrate, 5 μM ATP
Experimental: as §3, with “AXL: Anaplastic lymphoma kinase Methods: ELISA:” for “ELISA:”, “nm. The relative inhibition rate of the compound against tyrosine kinase protein was determined. According to the inhibition rates at different concentrations, IC50 was calculated by LOGIT method. The experiments were repeated three times, and the average of three IC50 values was the final index to evaluate the ability of inhibition.” for “nm.”

FGFR-1 = FGFR-1 (Homo sapiens, UniProt P11362); assay: In vitro enzyme experiment (ELISA), FGFR-1; type: biochemical; conditions: Poly (Glu, Tyr)4:1 substrate, 5 μM ATP
Experimental: FGFR-1: Fibroblast growth factor receptor 1
as §3, §4, §5

FLT-1 = FLT-1 (Homo sapiens, UniProt P17948); assay: In vitro enzyme experiment (ELISA), FLT-1; type: biochemical; conditions: Poly (Glu, Tyr)4:1 substrate, 5 μM ATP
Experimental: FLT-1: Human vascular endothelial growth factor receptor 1
as §3, §4, §5

A431 = assay: In vitro cell experiment (MTT), A431; type: cell-based; conditions: A-431, 72 h, human epidermoid carcinoma (EGFR1 overexpressing)
Experimental: as §1, §2

3T3swiss = assay: In vitro cell experiment (MTT), 3T3swiss; type: cell-based; conditions: Fibroblast, 72 h, mouse fibroblasts (PDGFR overexpressing)
Experimental: as §1, §2

HCT116 = assay: In vitro cell experiment (MTT), HCT116; type: cell-based; conditions: HCT-116, 72 h, human colon carcinoma cells
Experimental: as §1, §2

EGFR = EGFR (Homo sapiens, UniProt P00533); assay: In vitro enzyme experiment (ELISA), EGFR; type: biochemical; conditions: Poly (Glu, Tyr)4:1 substrate, 5 μM ATP
Experimental: EGFR: Human epidermal growth factor receptor 1
as §3, §4, §5

Sequence of FLT-1 (P17948 27-1338): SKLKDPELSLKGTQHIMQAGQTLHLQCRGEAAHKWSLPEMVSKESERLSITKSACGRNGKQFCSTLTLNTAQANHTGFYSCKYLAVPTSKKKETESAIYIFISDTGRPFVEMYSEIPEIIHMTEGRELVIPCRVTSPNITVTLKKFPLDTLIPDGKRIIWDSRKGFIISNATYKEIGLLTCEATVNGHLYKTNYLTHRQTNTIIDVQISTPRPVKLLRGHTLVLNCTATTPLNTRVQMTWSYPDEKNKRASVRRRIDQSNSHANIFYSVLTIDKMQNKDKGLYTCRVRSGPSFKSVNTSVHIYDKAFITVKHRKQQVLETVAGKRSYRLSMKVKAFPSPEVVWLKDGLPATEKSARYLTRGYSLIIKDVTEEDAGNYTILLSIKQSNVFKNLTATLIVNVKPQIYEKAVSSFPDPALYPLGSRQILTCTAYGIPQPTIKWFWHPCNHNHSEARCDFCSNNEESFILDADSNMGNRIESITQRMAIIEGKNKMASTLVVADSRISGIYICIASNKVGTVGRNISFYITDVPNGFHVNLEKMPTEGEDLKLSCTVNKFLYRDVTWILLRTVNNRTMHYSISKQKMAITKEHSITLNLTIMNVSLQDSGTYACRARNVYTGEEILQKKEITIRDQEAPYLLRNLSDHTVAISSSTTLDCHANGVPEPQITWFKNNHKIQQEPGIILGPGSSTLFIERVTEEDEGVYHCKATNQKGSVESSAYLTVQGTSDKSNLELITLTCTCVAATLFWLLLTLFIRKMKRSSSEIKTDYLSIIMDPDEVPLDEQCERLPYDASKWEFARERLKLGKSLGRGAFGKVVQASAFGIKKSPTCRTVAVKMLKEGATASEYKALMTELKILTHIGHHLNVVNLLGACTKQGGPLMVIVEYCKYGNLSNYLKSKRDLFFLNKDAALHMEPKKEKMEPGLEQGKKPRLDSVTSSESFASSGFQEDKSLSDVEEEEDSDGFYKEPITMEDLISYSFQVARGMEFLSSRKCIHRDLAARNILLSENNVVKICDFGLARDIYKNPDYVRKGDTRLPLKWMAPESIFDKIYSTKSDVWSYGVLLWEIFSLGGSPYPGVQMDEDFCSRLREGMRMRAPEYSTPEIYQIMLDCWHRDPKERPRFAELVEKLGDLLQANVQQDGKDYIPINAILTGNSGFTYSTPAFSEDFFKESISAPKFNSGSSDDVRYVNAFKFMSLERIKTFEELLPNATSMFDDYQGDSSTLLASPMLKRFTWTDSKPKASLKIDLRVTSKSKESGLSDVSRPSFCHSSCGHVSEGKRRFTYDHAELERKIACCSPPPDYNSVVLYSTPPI
Sequence of EGFR (P00533 25-1210): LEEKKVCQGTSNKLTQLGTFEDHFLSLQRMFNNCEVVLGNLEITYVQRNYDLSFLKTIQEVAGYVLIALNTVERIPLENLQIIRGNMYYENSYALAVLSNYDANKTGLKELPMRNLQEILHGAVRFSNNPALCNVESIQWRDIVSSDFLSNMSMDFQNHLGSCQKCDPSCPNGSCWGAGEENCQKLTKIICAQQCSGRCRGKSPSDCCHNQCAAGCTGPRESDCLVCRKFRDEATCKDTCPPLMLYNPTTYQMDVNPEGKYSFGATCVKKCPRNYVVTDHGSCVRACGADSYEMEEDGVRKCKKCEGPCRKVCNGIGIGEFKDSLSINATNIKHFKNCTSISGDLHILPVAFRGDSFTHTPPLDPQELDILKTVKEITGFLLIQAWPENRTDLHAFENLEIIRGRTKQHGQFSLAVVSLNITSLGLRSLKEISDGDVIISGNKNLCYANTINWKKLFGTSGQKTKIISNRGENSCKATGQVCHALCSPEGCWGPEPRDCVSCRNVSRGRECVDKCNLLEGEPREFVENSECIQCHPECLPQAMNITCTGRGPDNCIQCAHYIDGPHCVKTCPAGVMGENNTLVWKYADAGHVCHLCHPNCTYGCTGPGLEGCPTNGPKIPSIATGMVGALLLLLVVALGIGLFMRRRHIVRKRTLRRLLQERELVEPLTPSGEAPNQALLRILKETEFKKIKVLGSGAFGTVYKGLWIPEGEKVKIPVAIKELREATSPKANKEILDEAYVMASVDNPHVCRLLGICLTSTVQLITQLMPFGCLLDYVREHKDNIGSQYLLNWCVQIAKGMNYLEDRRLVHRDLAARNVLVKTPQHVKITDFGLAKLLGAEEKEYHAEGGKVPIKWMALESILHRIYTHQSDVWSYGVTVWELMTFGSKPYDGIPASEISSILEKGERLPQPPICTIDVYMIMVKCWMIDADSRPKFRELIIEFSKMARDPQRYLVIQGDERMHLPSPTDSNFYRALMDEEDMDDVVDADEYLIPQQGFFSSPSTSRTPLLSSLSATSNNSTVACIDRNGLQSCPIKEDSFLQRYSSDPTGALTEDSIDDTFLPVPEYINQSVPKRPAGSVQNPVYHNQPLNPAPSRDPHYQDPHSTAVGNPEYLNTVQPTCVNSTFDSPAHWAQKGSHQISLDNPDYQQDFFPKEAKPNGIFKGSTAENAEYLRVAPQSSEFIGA
Sequence of RET (P07949 29-1114, species assumed): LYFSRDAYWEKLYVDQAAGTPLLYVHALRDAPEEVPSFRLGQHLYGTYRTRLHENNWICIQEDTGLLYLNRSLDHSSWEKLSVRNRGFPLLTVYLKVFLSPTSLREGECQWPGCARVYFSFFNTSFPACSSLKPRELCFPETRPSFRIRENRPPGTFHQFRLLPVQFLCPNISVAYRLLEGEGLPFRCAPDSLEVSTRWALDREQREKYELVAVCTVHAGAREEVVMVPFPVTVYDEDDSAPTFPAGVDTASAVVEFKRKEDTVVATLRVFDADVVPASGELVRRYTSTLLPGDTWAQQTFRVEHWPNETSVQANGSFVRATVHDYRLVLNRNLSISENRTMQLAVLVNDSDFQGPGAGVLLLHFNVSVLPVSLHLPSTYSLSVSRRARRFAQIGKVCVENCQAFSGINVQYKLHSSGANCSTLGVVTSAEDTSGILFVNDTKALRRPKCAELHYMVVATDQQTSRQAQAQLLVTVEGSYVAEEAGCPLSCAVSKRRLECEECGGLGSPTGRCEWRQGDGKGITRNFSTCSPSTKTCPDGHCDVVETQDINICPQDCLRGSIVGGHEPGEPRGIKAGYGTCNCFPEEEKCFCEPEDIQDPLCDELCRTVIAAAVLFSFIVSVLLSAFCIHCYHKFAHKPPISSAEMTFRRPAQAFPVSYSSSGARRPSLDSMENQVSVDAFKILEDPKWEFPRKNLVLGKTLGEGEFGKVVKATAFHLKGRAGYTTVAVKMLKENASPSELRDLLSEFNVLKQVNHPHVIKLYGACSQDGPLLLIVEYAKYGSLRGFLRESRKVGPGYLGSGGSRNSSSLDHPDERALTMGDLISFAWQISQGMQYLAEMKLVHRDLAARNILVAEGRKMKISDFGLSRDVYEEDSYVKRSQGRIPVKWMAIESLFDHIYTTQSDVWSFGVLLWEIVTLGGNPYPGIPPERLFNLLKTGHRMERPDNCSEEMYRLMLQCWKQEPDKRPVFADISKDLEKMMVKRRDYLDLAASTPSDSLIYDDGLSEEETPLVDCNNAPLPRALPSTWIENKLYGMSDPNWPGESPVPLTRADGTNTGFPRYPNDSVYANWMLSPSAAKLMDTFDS
Sequence of FGFR-1 (P11362 22-822, species assumed): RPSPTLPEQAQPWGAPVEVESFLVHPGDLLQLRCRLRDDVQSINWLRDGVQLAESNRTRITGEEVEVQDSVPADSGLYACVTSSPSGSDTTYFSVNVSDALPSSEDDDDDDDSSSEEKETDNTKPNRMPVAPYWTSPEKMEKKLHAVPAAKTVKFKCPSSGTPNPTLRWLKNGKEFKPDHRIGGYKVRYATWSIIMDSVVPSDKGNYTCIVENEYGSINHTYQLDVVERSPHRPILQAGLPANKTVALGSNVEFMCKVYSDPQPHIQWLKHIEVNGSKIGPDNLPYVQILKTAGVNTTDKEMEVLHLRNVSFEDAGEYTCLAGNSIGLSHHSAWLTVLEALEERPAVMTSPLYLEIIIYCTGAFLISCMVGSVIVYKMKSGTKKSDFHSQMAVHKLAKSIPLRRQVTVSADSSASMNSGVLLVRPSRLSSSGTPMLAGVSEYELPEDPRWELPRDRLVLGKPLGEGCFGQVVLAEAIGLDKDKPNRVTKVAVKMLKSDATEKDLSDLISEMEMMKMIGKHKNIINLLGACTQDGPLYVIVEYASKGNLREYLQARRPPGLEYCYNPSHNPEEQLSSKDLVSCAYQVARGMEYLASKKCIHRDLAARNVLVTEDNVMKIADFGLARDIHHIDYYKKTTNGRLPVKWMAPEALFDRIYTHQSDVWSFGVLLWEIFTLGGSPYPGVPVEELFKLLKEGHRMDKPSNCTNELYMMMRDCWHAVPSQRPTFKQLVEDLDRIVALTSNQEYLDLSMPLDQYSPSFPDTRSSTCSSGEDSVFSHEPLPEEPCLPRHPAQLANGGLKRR
Sequence of BTK (Q06187 whole entry, species assumed): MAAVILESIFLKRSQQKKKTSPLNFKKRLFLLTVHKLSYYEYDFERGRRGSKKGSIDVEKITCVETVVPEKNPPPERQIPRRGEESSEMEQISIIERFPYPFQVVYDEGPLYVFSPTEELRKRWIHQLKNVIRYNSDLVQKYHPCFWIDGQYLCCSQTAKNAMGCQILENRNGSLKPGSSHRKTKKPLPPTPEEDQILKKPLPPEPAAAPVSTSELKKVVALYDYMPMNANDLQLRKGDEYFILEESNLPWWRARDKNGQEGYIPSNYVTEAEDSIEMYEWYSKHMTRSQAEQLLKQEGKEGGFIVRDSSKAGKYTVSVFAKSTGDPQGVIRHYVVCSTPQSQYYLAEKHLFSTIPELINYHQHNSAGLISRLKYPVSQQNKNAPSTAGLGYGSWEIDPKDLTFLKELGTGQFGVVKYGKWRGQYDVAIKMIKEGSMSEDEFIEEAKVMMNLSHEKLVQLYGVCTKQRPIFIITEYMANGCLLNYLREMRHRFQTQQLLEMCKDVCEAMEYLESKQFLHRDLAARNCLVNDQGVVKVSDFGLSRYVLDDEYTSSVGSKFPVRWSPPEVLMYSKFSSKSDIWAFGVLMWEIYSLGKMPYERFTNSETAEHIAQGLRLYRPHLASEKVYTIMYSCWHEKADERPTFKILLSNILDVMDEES

| Compound | pIC50 (HT-29) | pIC50 (A375) | pIC50 (A549) | pIC50 (SGC7901) | pIC50 (PDGFRβ) | pIC50 (SK-OV-3) | pIC50 (Eca109) | pIC50 (KDR) | pIC50 (HUVEC) | pIC50 (Bel-7402) | pIC50 (HCC827) | pIC50 (PC-9) | pIC50 (BTK) | pIC50 (H292) | pIC50 (A498) | MTD [1] | pIC50 (TT) | pIC50 (RET) | pIC50 (CFPAC-1) | pIC50 (AXL) | other results |
| --- | --- | --- | --- | --- | --- | --- | --- | --- | --- | --- | --- | --- | --- | --- | --- | --- | --- | --- | --- | --- | --- |
| COc1cc2c(Nc3ccc(F)c(Cl)c3)ncnc2cc1OCCCCN(C)C [Compound 37, 4-(3-chloro-4-fluoroanilino)-6-methoxy-7-(4-(dimethylamino)-butoxy)quinazoline] | 5.60 | 7.11 | 5.75 | 5.40 | 6.72 | 5.68 | 5.24 | 7.80 | 7.53 | 5.25 | 9.22 | 8.06 | 6.51 | 7.40 | 5.67 | 250 to 500 mg/kg | 6.87 | 7.80 | 5.23 | 5.77 | pIC50 (FGFR-1): 7.56; pIC50 (FLT-1): 7.52; pIC50 (A431): 5.96; pIC50 (3T3swiss): 5.81; pIC50 (HCT116): 6.25; pIC50 (EGFR): 7.01 |
| COc1cc2c(Nc3ccc(Br)cc3F)ncnc2cc1OCCCN(C)C [Compound 29, 4-(4-bromo-2-fluoroanilino)-6-methoxy-7-(3-(dimethylamino)-propoxy)quinazoline] | 5.66 | 6.99 | 5.67 | 5.35 | 6.61 | 5.59 | 5.27 | 7.76 | 7.62 | 5.23 | 9.22 | 8.15 | 6.59 | 7.34 | 5.63 | 125 to 250 mg/kg | 6.90 | 7.87 | 5.29 | 5.74 | pIC50 (FGFR-1): 7.61; pIC50 (FLT-1): 7.51; pIC50 (A431): 5.56; pIC50 (3T3swiss): 5.86; pIC50 (HCT116): 6.19; pIC50 (EGFR): 6.90 |
| COc1cc2c(Nc3ccc(Br)cc3F)ncnc2cc1OCCCCN1CCCC1 [Compound 30, 4-(4-bromo-2-fluoroanilino)-6-methoxy-7-(4-(pyrrolidin-1-yl)butoxy)quinazoline] | 5.66 | 6.71 | 5.82 | 5.38 | 6.61 | 5.60 | 5.26 | 7.80 | 7.56 | 5.34 | 9.30 | 8.15 | 6.58 | 7.36 | 5.54 | 250 to 500 mg/kg | 6.90 | 7.84 | 5.29 | 5.70 | pIC50 (FGFR-1): 7.59; pIC50 (FLT-1): 7.59; pIC50 (A431): 5.80; pIC50 (3T3swiss): 5.83; pIC50 (HCT116): 6.11; pIC50 (EGFR): 6.93 |
| COc1cc2c(Nc3ccc(F)c(Cl)c3)ncnc2cc1OCCCN(C)C [Compound 38, 4-(3-chloro-4-fluoroanilino)-6-methoxy-7-(3-(dimethylamino)-propoxy)quinazoline] | 5.57 | 6.75 | 5.63 | 5.41 | 6.57 | 5.69 | 5.23 | 7.75 | 7.58 | 5.23 | 9.15 | 8.11 | 6.49 | 7.34 | 5.65 | 125 to 250 mg/kg | 6.94 | 7.70 | 5.24 | 5.67 | pIC50 (FGFR-1): 7.54; pIC50 (FLT-1): 7.45; pIC50 (A431): 5.84; pIC50 (3T3swiss): 5.81; pIC50 (HCT116): 6.21; pIC50 (EGFR): 7.00 |
| COc1cc2c(Nc3ccc(F)c(Cl)c3)ncnc2cc1OCCCCN1CCCC1 [Compound 40, 4-(3-chloro-4-fluoroanilino)-6-methoxy-7-(4-(pyrrolidin-1-yl)butoxy)quinazoline] | 5.63 | 6.61 | 5.62 | 5.43 | 6.62 | 5.92 | 5.26 | 7.73 | 7.91 | 5.23 | 10.00 | 8.11 | 6.51 | 7.25 | 5.61 | 125 to 250 mg/kg | 7.03 | 7.76 | 5.27 | 5.70 | pIC50 (FGFR-1): 7.55; pIC50 (FLT-1): 7.40; pIC50 (A431): 5.81; pIC50 (3T3swiss): 5.74; pIC50 (HCT116): 6.22; pIC50 (EGFR): 6.95 |
